These results are taken from article PMC12621191, “Increasing the Chemical Space of L-SIGN Specific Glycomimetics” (Journal of Medicinal Chemistry, 2025).

The target of one assay is T1, L-SIGN (Homo sapiens, UniProt Q9H2X3).
T1 construct: L-SIGN 3G-ECD (amino acids 78 to 399); made in house
T1 sequence (Q9H2X3 78-399): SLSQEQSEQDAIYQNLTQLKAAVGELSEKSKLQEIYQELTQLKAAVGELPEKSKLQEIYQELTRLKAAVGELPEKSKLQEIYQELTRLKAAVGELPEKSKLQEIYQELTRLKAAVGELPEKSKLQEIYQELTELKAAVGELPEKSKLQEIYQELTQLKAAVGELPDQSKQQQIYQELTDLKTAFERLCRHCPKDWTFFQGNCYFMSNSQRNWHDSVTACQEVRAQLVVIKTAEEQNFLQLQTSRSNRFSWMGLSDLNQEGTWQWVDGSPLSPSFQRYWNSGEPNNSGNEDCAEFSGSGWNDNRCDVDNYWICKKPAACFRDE
Put plainly: SPR binding inhibition (competition) assay on immobilized SARS-CoV-2 Spike surface, L-SIGN. The settings on record: for Selectivity = (IC50 [DC-SIGN]/IC50 [L-SIGN]): L-SIGN vs DC-SIGN, SPR inhibition on Spike surface; for IC50 / L-SIGN IC50: SPR, Spike functionalized chip, L-SIGN 20 μM coinjected with ligand, pH 8, duplicates. Background: In SPR one partner is held on a chip, and binding of the other changes the refractive index at the surface.

The next assay deals with T2, DC-SIGN (Homo sapiens, UniProt Q9NNX6).
T2 construct: DC-SIGN 3G-ECD (amino acids 66 to 404); made in house
T2 sequence (Q9NNX6 66-404): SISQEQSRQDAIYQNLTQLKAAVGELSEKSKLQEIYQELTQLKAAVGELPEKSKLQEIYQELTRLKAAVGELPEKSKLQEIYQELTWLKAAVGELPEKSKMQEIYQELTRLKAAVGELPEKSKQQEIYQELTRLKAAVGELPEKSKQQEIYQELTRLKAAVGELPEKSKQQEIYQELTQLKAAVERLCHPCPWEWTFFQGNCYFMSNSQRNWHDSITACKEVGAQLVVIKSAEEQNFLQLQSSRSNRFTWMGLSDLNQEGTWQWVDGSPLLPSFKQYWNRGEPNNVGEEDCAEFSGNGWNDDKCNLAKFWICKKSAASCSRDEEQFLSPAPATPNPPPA
Put plainly: SPR binding inhibition (competition) assay on immobilized SARS-CoV-2 Spike surface, DC-SIGN. The settings on record: Spike functionalized chip, DC-SIGN 20 μM coinjected with ligand, pH 8, duplicates.

Regarding `N=C(N)NCc1cn([C@@H]2[C@@H](OCCCl)O[C@H](CO)[C@@H](O)[C@@H]2O)nn1` [Man84, reference compound], on L-SIGN, the “Selectivity = (IC50 [DC-SIGN]/IC50 [L-SIGN])” value (“Selectivity =” for short) is on record as 61 and the IC50 is 19 ± 0.02 µM. This compound also registered an IC50 at DC-SIGN of 1160 ± 25 µM.
For the compound `OC[C@H]1O[C@H](OCCCl)[C@@H](n2cc(CNc3ncccn3)nn2)[C@@H](O)[C@@H]1O` [compound 2], on L-SIGN, the IC50 was 602 ± 0.5 µM and the “L-SIGN IC50” value is listed as “Low affinity”. The IC50 at DC-SIGN turned out to be 798 ± 16 µM.
For `COc1nc(NCc2cn([C@@H]3[C@@H](OCCCl)O[C@H](CO)[C@@H](O)[C@@H]3O)nn2)nc(OC)n1` [compound 3, 2-Chloroethyl 2-Deoxy-2-(4-(((4,6-dimethoxy-1,3,5-triazin-2-yl)amino)methyl)-1,2,3-triazol-1-yl)-α-D-mannopyranoside], in that order: 453 ± 0.4 µM, “Low affinity” and 555 ± 14 µM.
Regarding `OC[C@H]1O[C@H](OCCCl)[C@@H](n2cc(CNC3=NCCN3)nn2)[C@@H](O)[C@@H]1O` [compound 4], on L-SIGN, the “Selectivity =” value is 76 and the 50% inhibitory concentration (IC50) amounted to 15 ± 0.01 µM. The IC50 on DC-SIGN was found to be 1130 ± 26 µM.
In the case of `OC[C@H]1O[C@H](OCCCl)[C@@H](n2cc(CNC3=NCCCN3)nn2)[C@@H](O)[C@@H]1O` [compound 5, 2-Chloroethyl 2-Deoxy-2-(4-(((1,4,5,6-tetrahydropyrimidin-2-yl)amino)methyl)-1,2,3-triazol-1-yl)-α-D-mannopyranoside], on L-SIGN, the “Selectivity =” value was found to be 94 and the IC50 turned out to be 12 ± 0.01 µM. At DC-SIGN, this compound came in with an IC50 of 1130 ± 55 µM.
For the compound `O=c1ccnc(NCc2cn([C@@H]3[C@@H](OCCCl)O[C@H](CO)[C@@H](O)[C@@H]3O)nn2)[nH]1` [compound 6, 2-Chloroethyl 2-Deoxy-2-(4-(((pyrimidin-4(3H)-onyl)amino)methyl)-1,2,3-triazol-1-yl)-α-D-manno Pyranoside], on L-SIGN, the “Selectivity =” value turned out to be 25 and the IC50 was 30 ± 0.2 µM. The IC50 at DC-SIGN came to 750 ± 29 µM.
Take `O=c1nccc(NCc2cn([C@@H]3[C@@H](OCCCl)O[C@H](CO)[C@@H](O)[C@@H]3O)nn2)[nH]1` [compound 7, 2-Chloroethyl 2-Deoxy-2-(4-(((pyrimidin-2(1H)-onyl)amino)methyl)-1,2,3-triazol-1-yl)-α-D-manno Pyranoside]: on L-SIGN, the “Selectivity =” value came to 5 and the IC50 is 130 ± 1 µM. Moreover, at DC-SIGN, the IC50 came to 692 ± 8 µM.
For `OC[C@H]1O[C@H](OCCCl)[C@@H](n2cc(CNc3ccccn3)nn2)[C@@H](O)[C@@H]1O` [compound 8, 2-Chloroethyl 2-Deoxy-2-((4-((pyridin-2-ylamino)methyl))-1,2,3-triazol-1-yl)-α-D-mannopyranoside], in that order: 8, 101 ± 0.2 µM and 822 ± 16 µM.
Regarding `OC[C@H]1O[C@H](OCCCl)[C@@H](n2cc(CNc3ncc[nH]3)nn2)[C@@H](O)[C@@H]1O` [compound 9, 2-Chloroethyl 2-Deoxy-2-(4-(((1H-imidazol-2-yl)amino)methyl)-1,2,3-triazol-1-yl)-α-D-mannopyranoside], on L-SIGN, the “Selectivity =” value was 50 and the IC50 was 18 ± 0.1 µM. This compound came in with an IC50 on DC-SIGN of 895 ± 8 µM.
For the compound `OC[C@H]1O[C@H](OCCCl)[C@@H](n2cc(CNc3nc4ccccc4[nH]3)nn2)[C@@H](O)[C@@H]1O` [compound 10, 2-Chloroethyl 2-Deoxy-2-(4-(((1H-benzo[d]imidazol-2-yl)amino)methyl)-1,2,3-triazol-1-yl)-α-D-mannopyranoside], at L-SIGN, the “Selectivity =” value worked out at 16 and the concentration for half-maximal inhibition (IC50) came out at 48 ± 0.4 µM. At DC-SIGN, this compound showed an IC50 of 779 ± 24 µM.
Take `COc1ccc2[nH]c(NCc3cn([C@@H]4[C@@H](OCCCl)O[C@H](CO)[C@@H](O)[C@@H]4O)nn3)nc2c1` [compound 11, 2-Chloroethyl 2-Deoxy-2-(4-(((5-methoxy-1H-benzo[d]imidazol-2-yl)amino)methyl)-1,2,3-triazol-1-yl)-α-D-mannopyranoside]: on L-SIGN, the “Selectivity =” value was 12 and the half-inhibitory concentration (IC50) worked out at 51.6 ± 0.7 µM. The IC50 at DC-SIGN came out at 602 ± 12 µM.
In the case of `NCc1cn([C@@H]2[C@@H](OCCCl)O[C@H](CO)[C@@H](O)[C@@H]2O)nn1` [compound 51, reference compound], the “Selectivity =” value on L-SIGN (listed as 51 (Man79)) is “totally unselective”. Also, the IC50 at L-SIGN and on DC-SIGN was roughly 300 µM each time.

The IC50 is the point on the concentration scale where inhibition reaches its midpoint. Read a low IC50 as higher potency.
